From patent publication US20120172292A1, “METHOD FOR PROTECTION OF ANTIMICROBIAL AND ANTICANCER DRUGS FROM INACTIVATION BY NITRIC OXIDE” (NEW YORK UNIVERSITY, priority 2009, published 2012)
Where “and” joins values, the source holds several entries; their conditions need not be identical. Equal values may be shown once.

How the values were obtained:
Streptococcus = conditions: cited from earlier work
Streptococcus C203 = conditions: cited from earlier work
B.subtilis [1] = assay: Growth of B.subtilis with ACR or AO premixed with NO donor; type: cell-based
S. aureus = conditions: cited from earlier work
B.subtilis [2] = type: cell-based
B.subtilis 6051 and Δnos = type: cell-based; conditions: 25 μg/ml cefuroxime
B.anthracis [3] = type: cell-based; conditions: CuFL 20 μM
S.aureus 4220 and Δnos = type: cell-based; conditions: 0.4 μg/ml CEF
B. subtilis = type: cell-based
B.anthracis [4] = type: cell-based

## Nc1c2ccccc2nc2cc([N+](=O)[O-])ccc12 [3-nitro-9-aminoacridine]
Streptococcus
  MIC: 1.5 μM and ~0.4 μg/ml

## COc1cc2c(N)c3ccc([N+](=O)[O-])cc3[n+]([O-])c2cc1OC [9-Amino-2,3-dimethoxy-6-nitroacridine 10-oxides]
Streptococcus C203
  MIC: 20 nM and ~6 ng/ml

## COc1cc(NS(C)(=O)=O)ccc1Nc1c2ccccc2nc2ccccc12 [AMSAcrine]
HepG2 human hepatocytes; 20 μM AMSAcrine, 100 μM MAHMA NONOate, viability 24 hours later
  cell survival, AMSAcrine preincubated with exogenous NO versus AMSAcrine alone: 5.5 fold

## CN(C)c1ccc2cc3ccc(N(C)C)cc3nc2c1 [AO, acridine orange]
B.subtilis [1]
  effect of NO treatment on antibacterial activity: unaffected by NO treatment
B.subtilis [1]; 10 μg/ml
  antibacterial effect compared with ACR: significantly less than that of ACR

## Cc1cc2cc3ccc(N(C)C)cc3[n+](C)c2cc1N.[Cl-] [Flavicid]
S. aureus
  MIC: 10 μM and ~2.6 μg/ml

## COC(=O)[C@@H](N)CCCNC(=N)N[N+](=O)[O-] [L-NAME, N G -nitro-L-arginine methyl ester]
HepG2 human hepatocytes; 4 mM L-NAME 8 hours prior to 20 μM AMSAcrine
  sensitivity of hepatocytes to AMSAcrine after inhibition of cellular NOS: increased sensitization

## c1ccc(-c2ccccn2)nc1 [bipyridyl]
B.subtilis [2]
  effect of pretreatment on toxicity of ACR: substantially decreased the toxicity of ACR

## CO/N=C(\C(=O)N[C@@H]1C(=O)N2C(C(=O)O)=C(COC(N)=O)CS[C@H]12)c1ccco1 [cefuroxime]
B.subtilis 6051 and Δnos
  killing of nos deficient versus wt cells: much more efficiently than wt cells
B.anthracis [3]
  NO production after antibiotic challenge: greatly stimulated NO production
S.aureus 4220 and Δnos
  growth inhibition of nos-deficient versus wild type cells: much greater extent
B. subtilis
  end products of NO oxidation (nitrite/nitrate) in growing culture after challenge: increase
B.anthracis [4]
  killing of nos deficient versus wt cells: much more efficiently than wt cells
